{
  "source": "patent US20030199514A1",
  "about": "“Methods for improving efficacy of treatment with growth hormone secretagogues” (priority 2002, published 2003)",
  "system": "urinary nitrogen excretion",
  "experiment": "Phase I double-blind, placebo-controlled, multiple dose evaluation of test compound in calorically restricted, obese men and women",
  "assay_type": "in vivo, human",
  "conditions": "obese subjects on caloric-restricted diet, 3 mg po tid, 6 mg po tid or 10 mg po qam for seven days",
  "protocol": "Phase I Double-Blind, Placebo-Controlled, Multiple Dose Evaluation of Test Compound in Calorically Restricted, Obese Men and Women\nA total of 48 obese subjects, with a negative exercise tolerance test and without significant other medical problems, were recruited for this study and placed on a caloric-restricted diet. Subjects were randomized to either placebo, 3 mg po tid, 6 mg po tid or 10 mg po qam of the test compound, 2-amino-N-[2-(3a-(R)-benzyl-2-methyl-3-oxo-2,3,3a,4,6,7-hexahydro-pyrazolo[4,3-c]pyridin-5-yl)-1-(R)-benzyloxymethyl-2-oxo-ethyl]-isobutyramide, L-tartrate, for a total of seven days.\nThe primary efficacy outcome variable of this study was urinary nitrogen excretion. Breakdown of protein (protein catabolism) may be measured by urinary nitrogen excretion. The covariates determined in this study included: 1.) gender; 2.) serum total and free testosterone; and 3.) serum total and free estradiol.",
  "data": [
    {"compound": "CN1N=C2CCN(C(=O)[C@@H](COCc3ccccc3)NC(=O)C(C)(C)N)C[C@@]2(Cc2ccccc2)C1=O.O=C(O)C(O)C(O)C(=O)O", "note": "[test compound, 2-amino-N-[2-(3a-(R)-benzyl-2-methyl-3-oxo-2,3,3a,4,6,7-hexahydro-pyrazolo[4,3-c]pyridin-5-yl)-1-(R)-benzyloxymethyl-2-oxo-ethyl]-isobutyramide, L-tartrate]", "values": [
      {"measurement": "effect on urinary nitrogen (excretion)", "setting": "men", "result": "manifest in men"},
      {"measurement": "effect on urinary nitrogen (excretion)", "setting": "women", "result": "modest effects of treatment in women"}
    ]}
  ]
}
